# In publication PMC5218480 (PLoS ONE, 2017):
# Test system: MV-4-11 cells
# Assay: Gene expression microarray analysis (Affymetrix PrimeView) and GSEA
# Type: cell-based, human
# Design: RFU PODN (11730768_x_at) / Fold change /veh PODN (11730768_x_at) / RFU LINC00158 (11744669_a_at) / Fold change /veh LINC00158 (11744669_a_at) / RFU DUSP10 (11751237_a_at) / Fold change /veh DUSP10 (11751237_a_at) / RFU ID3 (11757404_x_at) / Fold change /veh ID3 (11757404_x_at) / RFU PLEKHG5 (11737974_s_at) / Fold change /veh PLEKHG5 (11737974_s_at) / RFU LRRC4B (11730491_at) / Fold change /veh LRRC4B (11730491_at) / RFU GIMAP4 (11747438_a_at) / Fold change /veh GIMAP4 (11747438_a_at) / RFU KRT8 (11758183_x_at) / Fold change /veh KRT8 (11758183_x_at) / RFU CNN1 (11734310_a_at) / Fold change /veh CNN1 (11734310_a_at) / RFU VPS37D (11726825_at) / Fold change /veh VPS37D (11726825_at) / RFU C10orf10 (11716522_x_at) / Fold change /veh C10orf10 (11716522_x_at) / RFU KIR2DL2 /// KIR2DL4 /// KIR2DL5A /// KIR2DL5B /// KIR2DS1 /// KIR2DS2 /// KIR2DS3 /// KIR2DS4 /// KIR3DL3 /// KIR3DL3 /// KIR3DS1 (11738374_at) / Fold change /veh KIR2DL2 /// KIR2DL4 /// KIR2DL5A /// KIR2DL5B /// KIR2DS1 /// KIR2DS2 /// KIR2DS3 /// KIR2DS4 /// KIR3DL3 /// KIR3DL3 /// KIR3DS1 (11738374_at) / RFU C1QL1 (11718748_at) / Fold change /veh C1QL1 (11718748_at) / RFU TMPRSS4 (11747572_a_at) / Fold change /veh TMPRSS4 (11747572_a_at) / RFU HAMP (11756126_x_at) / Fold change /veh HAMP (11756126_x_at) / RFU RNFT2 (11725882_a_at) / Fold change /veh RNFT2 (11725882_a_at) / RFU NR4A2 (11747474_a_at) / Fold change /veh NR4A2 (11747474_a_at) / RFU ABCC12 (11746883_a_at) / Fold change /veh ABCC12 (11746883_a_at) / RFU TMEM136 (11760407_x_at) / Fold change /veh TMEM136 (11760407_x_at) / RFU CLDN22 /// WWC2 (11732394_at) / Fold change /veh CLDN22 /// WWC2 (11732394_at) / RFU HLA-DPB1 (11760878_x_at) / Fold change /veh HLA-DPB1 (11760878_x_at) / RFU SPINT1 (11716480_a_at) / Fold change /veh SPINT1 (11716480_a_at) / RFU GAP43 (11754022_s_at) / Fold change /veh GAP43 (11754022_s_at) / RFU A4GNT (11735810_at) / Fold change /veh A4GNT (11735810_at) / RFU PRB3 (11715151_x_at) / Fold change /veh PRB3 (11715151_x_at) / RFU TUBB4B (11761932_at) / Fold change /veh TUBB4B (11761932_at) / RFU CAPN14 (11732068_a_at) / Fold change /veh CAPN14 (11732068_a_at) / RFU TMCC2 (11721928_a_at) / Fold change /veh TMCC2 (11721928_a_at) / RFU IRGQ (11745062_a_at) / Fold change /veh IRGQ (11745062_a_at) / RFU FAM174B (11720279_a_at) / Fold change /veh FAM174B (11720279_a_at) / RFU TMPRSS4 (11748680_a_at) / Fold change /veh TMPRSS4 (11748680_a_at) / RFU FAM212B (11763350_a_at) / Fold change /veh FAM212B (11763350_a_at) / RFU PLEKHG5 (11743358_a_at) / Fold change /veh PLEKHG5 (11743358_a_at) / RFU ZSCAN30 (11745921_a_at) / Fold change /veh ZSCAN30 (11745921_a_at) / RFU CMKLR1 (11741424_a_at) / Fold change /veh CMKLR1 (11741424_a_at) / RFU LOC101060620 /// MAPK8IP1 (11723275_at) / Fold change /veh LOC101060620 /// MAPK8IP1 (11723275_at) / RFU SPTSSB (11747773_x_at) / Fold change /veh SPTSSB (11747773_x_at) / RFU PRSS12 (11739890_at) / Fold change /veh PRSS12 (11739890_at) / RFU BIN1 (11741810_x_at) / Fold change /veh BIN1 (11741810_x_at) / RFU WNT11 (11732464_a_at) / Fold change /veh WNT11 (11732464_a_at) / RFU C10orf10 (11716521_a_at) / Fold change /veh C10orf10 (11716521_a_at) / RFU C5orf56 (11738089_at) / Fold change /veh C5orf56 (11738089_at) / RFU CYB561 (11721691_x_at) / Fold change /veh CYB561 (11721691_x_at) / RFU ANKRD19P (11752326_a_at) / Fold change /veh ANKRD19P (11752326_a_at) / RFU OR2T12 /// OR2T33 /// OR2T8 (11738714_s_at) / Fold change /veh OR2T12 /// OR2T33 /// OR2T8 (11738714_s_at) / RFU VCAN (11748164_a_at) / Fold change /veh VCAN (11748164_a_at) / RFU JSRP1 (11732532_at) / Fold change /veh JSRP1 (11732532_at) / RFU KRTAP10-11 (11738290_x_at) / Fold change /veh KRTAP10-11 (11738290_x_at) / RFU MYO3A (11730013_a_at) / Fold change /veh MYO3A (11730013_a_at) / RFU EBF3 (11725865_a_at) / Fold change /veh EBF3 (11725865_a_at) / RFU CAMK2N1 (11719241_x_at) / Fold change /veh CAMK2N1 (11719241_x_at) / RFU C5orf56 (11738088_a_at) / Fold change /veh C5orf56 (11738088_a_at) / RFU OLFML3 (11715873_a_at) / Fold change /veh OLFML3 (11715873_a_at) / RFU LOC100653217 /// NTM (11731650_a_at) / Fold change /veh LOC100653217 /// NTM (11731650_a_at) / RFU MAPK11 (11762145_a_at) / Fold change /veh MAPK11 (11762145_a_at) / RFU FIZ1 (11724087_x_at) / Fold change /veh FIZ1 (11724087_x_at) / RFU OASL (11726364_x_at) / Fold change /veh OASL (11726364_x_at) / RFU SOX15 (11748057_x_at) / Fold change /veh SOX15 (11748057_x_at) / RFU CD79A (11719716_a_at) / Fold change /veh CD79A (11719716_a_at) / RFU HIST1H1D (11736915_at) / Fold change /veh HIST1H1D (11736915_at) / RFU CASKIN2 (11723855_a_at) / Fold change /veh CASKIN2 (11723855_a_at) / RFU LOC730098 (11760151_x_at) / Fold change /veh LOC730098 (11760151_x_at) / RFU OR4N2 (11742367_at) / Fold change /veh OR4N2 (11742367_at) / RFU PRRT2 (11749266_a_at) / Fold change /veh PRRT2 (11749266_a_at) / RFU SNX32 (11753110_a_at) / Fold change /veh SNX32 (11753110_a_at) / RFU CDHR5 (11726645_a_at) / Fold change /veh CDHR5 (11726645_a_at) / RFU RCAN1 (11760418_a_at) / Fold change /veh RCAN1 (11760418_a_at) / RFU FAM167A (11723789_a_at) / Fold change /veh FAM167A (11723789_a_at) / RFU FAM26E (11764081_at) / Fold change /veh FAM26E (11764081_at) / RFU ISYNA1 (11749810_s_at) / Fold change /veh ISYNA1 (11749810_s_at) / RFU ACY1 (11761880_at) / Fold change /veh ACY1 (11761880_at) / RFU 11764098_at / Fold change /veh 11764098_at / RFU SAMD14 (11745864_x_at) / Fold change /veh SAMD14 (11745864_x_at) / RFU NPB (11741838_a_at) / Fold change /veh NPB (11741838_a_at) / RFU TMPRSS6 (11731388_a_at) / Fold change /veh TMPRSS6 (11731388_a_at) / RFU KRTAP10-2 (11738614_at) / Fold change /veh KRTAP10-2 (11738614_at) / RFU ARHGAP8 /// PRR5-ARHGAP8 (11727945_x_at) / Fold change /veh ARHGAP8 /// PRR5-ARHGAP8 (11727945_x_at) / RFU KRTAP5-7 /// NADSYN1 (11734609_at) / Fold change /veh KRTAP5-7 /// NADSYN1 (11734609_at) / RFU RASL12 (11751679_a_at) / Fold change /veh RASL12 (11751679_a_at) / RFU CDKN2B (11736163_a_at) / Fold change /veh CDKN2B (11736163_a_at) / RFU PRF1 (11729649_at) / Fold change /veh PRF1 (11729649_at) / RFU, ZNF638 /// ZNF638-IT1 / Fold change vs veh, ZNF638 /// ZNF638-IT1 / RFU, PANK3 / Fold change vs veh, PANK3 / RFU, SH3YL1 / Fold change vs veh, SH3YL1 / RFU, ZEB2 / Fold change vs veh, ZEB2 / RFU, NRIP1 / Fold change vs veh, NRIP1 / RFU, PTTG1IP / Fold change vs veh, PTTG1IP / RFU, CAPN2 / Fold change vs veh, CAPN2 / RFU, MED14 / Fold change vs veh, MED14 / RFU, SNORA58 / Fold change vs veh, SNORA58 / RFU, C1orf63 / Fold change vs veh, C1orf63 / RFU, LRRFIP1 / Fold change vs veh, LRRFIP1 / RFU, NDUFAF7 / Fold change vs veh, NDUFAF7 / RFU, SLC12A2 / Fold change vs veh, SLC12A2 / RFU, IBTK / Fold change vs veh, IBTK / RFU, ESF1 / Fold change vs veh, ESF1 / Fold change vs veh, TMEM50B / RFU, TAOK1 / Fold change vs veh, TAOK1 / RFU, ACBD3 / Fold change vs veh, ACBD3 / RFU, TMA16 / Fold change vs veh, TMA16 / RFU, RWDD3 / Fold change vs veh, RWDD3 / RFU, BCAT1 / Fold change vs veh, BCAT1 / RFU, EDEM3 / Fold change vs veh, EDEM3 / RFU, TMEM33 / Fold change vs veh, TMEM33 / RFU, WDR75 / Fold change vs veh, WDR75 / RFU, AHCTF1 / Fold change vs veh, AHCTF1 / RFU, TFRC / Fold change vs veh, TFRC / RFU, ZDHHC17 / Fold change vs veh, ZDHHC17 / RFU, NOM1 / Fold change vs veh, NOM1 / RFU, ARL8B / Fold change vs veh, ARL8B / RFU, ZBTB11 / Fold change vs veh, ZBTB11 / RFU, TAMM41 / Fold change vs veh, TAMM41 / RFU, KIAA1704 /// LOC100996395 / Fold change vs veh, KIAA1704 /// LOC100996395 / RFU, ING1 / Fold change vs veh, ING1 / RFU, TRMT61B / Fold change vs veh, TRMT61B / RFU, FUBP3 / Fold change vs veh, FUBP3 / RFU, TP53 / Fold change vs veh, TP53 / RFU, TNKS2 / Fold change vs veh, TNKS2 / RFU, ZFP14 / Fold change vs veh, ZFP14 / RFU, ACTR2 / Fold change vs veh, ACTR2 / RFU, PPP3R1 / Fold change vs veh, PPP3R1 / RFU, PIK3R1 / Fold change vs veh, PIK3R1 / RFU, HNRNPA1 / Fold change vs veh, HNRNPA1 / RFU, RNF170 / Fold change vs veh, RNF170 / RFU, ZNF28 / Fold change vs veh, ZNF28 / RFU, RNGTT / Fold change vs veh, RNGTT / RFU, OGT / Fold change vs veh, OGT / RFU, BRD1 / Fold change vs veh, BRD1 / RFU, MARS / Fold change vs veh, MARS / RFU, ZNF655 / Fold change vs veh, ZNF655 / RFU, FAHD1 / Fold change vs veh, FAHD1 / RFU, BDP1 / Fold change vs veh, BDP1 / RFU, LRRCC1 / Fold change vs veh, LRRCC1 / RFU, ARID1A / Fold change vs veh, ARID1A / RFU, ZNF146 / Fold change vs veh, ZNF146 / RFU, ZNF330 / Fold change vs veh, ZNF330 / RFU, GPN3 / Fold change vs veh, GPN3 / RFU, C9orf123 / Fold change vs veh, C9orf123 / RFU, N4BP2L2 / Fold change vs veh, N4BP2L2 / RFU, ARFIP1 / Fold change vs veh, ARFIP1 / RFU, FAM179B / Fold change vs veh, FAM179B / RFU, BCL10 / Fold change vs veh, BCL10 / RFU, UHRF1BP1L / Fold change vs veh, UHRF1BP1L / RFU, BET1 / Fold change vs veh, BET1 / RFU, CNOT2 / Fold change vs veh, CNOT2 / RFU, ZNF268 / Fold change vs veh, ZNF268 / Fold change vs veh, ZNF507 / RFU, DGCR2 / Fold change vs veh, DGCR2 / RFU, WDSUB1 / Fold change vs veh, WDSUB1 / Fold change vs veh, HSP90B1 /// MIR3652 / RFU, ADSS / Fold change vs veh, ADSS / RFU, GK / Fold change vs veh, GK / RFU, ZNF148 / Fold change vs veh, ZNF148 / RFU, TAF9 / Fold change vs veh, TAF9 / RFU, SLC1A5 / Fold change vs veh, SLC1A5 / RFU, SLMO2 / Fold change vs veh, SLMO2 / RFU, ABCC4 / Fold change vs veh, ABCC4 / RFU, LOC101060439 /// RAP1B / Fold change vs veh, LOC101060439 /// RAP1B / RFU, RFX7 / Fold change vs veh, RFX7 / RFU, GTPBP10 / Fold change vs veh, GTPBP10 / RFU, CNEP1R1 / Fold change vs veh, CNEP1R1 / RFU, BIVM-ERCC5 /// ERCC5 / Fold change vs veh, BIVM-ERCC5 /// ERCC5 / RFU, ILF3 / Fold change vs veh, ILF3 / RFU 11762660_at / Fold change /veh 11762660_at / RFU VCAN (11757783_s_at) / Fold change /veh VCAN (11757783_s_at) / RFU DDX43 (11728927_at) / Fold change /veh DDX43 (11728927_at) / RFU KRT8 (11758188_x_at) / Fold change /veh KRT8 (11758188_x_at) / RFU NKD1 (11759106_at) / Fold change /veh NKD1 (11759106_at) / RFU SRD5A1 (11742802_a_at) / Fold change /veh SRD5A1 (11742802_a_at) / RFU TPSAB1 /// TPSB2 (11721975_s_at) / Fold change /veh TPSAB1 /// TPSB2 (11721975_s_at) / RFU GSTM3 (11746129_a_at) / Fold change /veh GSTM3 (11746129_a_at) / RFU IL23R (11737362_x_at) / Fold change /veh IL23R (11737362_x_at) / RFU TMEM51 (11727254_a_at) / Fold change /veh TMEM51 (11727254_a_at) / RFU PIWIL2 (11732686_x_at) / Fold change /veh PIWIL2 (11732686_x_at) / RFU ORM1 (11744905_x_at) / Fold change /veh ORM1 (11744905_x_at) / RFU CCDC152 (11743942_at) / Fold change /veh CCDC152 (11743942_at) / RFU ECM1 (11717891_a_at) / Fold change /veh ECM1 (11717891_a_at) / RFU IL23R (11748794_a_at) / Fold change /veh IL23R (11748794_a_at) / RFU TNFAIP8L3 (11732012_x_at) / Fold change /veh TNFAIP8L3 (11732012_x_at) / RFU MBOAT4 (11741988_at) / Fold change /veh MBOAT4 (11741988_at) / RFU 11764193_at / Fold change /veh 11764193_at / RFU TMEM53 (11763286_at) / Fold change /veh TMEM53 (11763286_at) / RFU MAGEB2 (11727129_at) / Fold change /veh MAGEB2 (11727129_at) / RFU TMEM200A (11744735_a_at) / Fold change /veh TMEM200A (11744735_a_at) / RFU CCDC152 (11751479_a_at) / Fold change /veh CCDC152 (11751479_a_at) / RFU FAM211A (11726209_a_at) / Fold change /veh FAM211A (11726209_a_at) / RFU RGS16 (11746705_a_at) / Fold change /veh RGS16 (11746705_a_at) / RFU VCAN (11755009_s_at) / Fold change /veh VCAN (11755009_s_at) / RFU RHOB (11743442_s_at) / Fold change /veh RHOB (11743442_s_at) / RFU RGS16 (11720943_a_at) / Fold change /veh RGS16 (11720943_a_at) / RFU RGS16 (11720944_at) / Fold change /veh RGS16 (11720944_at) / RFU, VPS4B / Fold change vs veh, VPS4B / RFU, CREB1 / Fold change vs veh, CREB1 / RFU, DNAJC13 / Fold change vs veh, DNAJC13 / RFU, GNAQ / Fold change vs veh, GNAQ / RFU, CDK5R1 / Fold change vs veh, CDK5R1 / RFU, ZRANB3 / Fold change vs veh, ZRANB3 / RFU, CUL4A / Fold change vs veh, CUL4A / RFU, CCNY / Fold change vs veh, CCNY / RFU, UFL1 / Fold change vs veh, UFL1 / RFU, COG3 / Fold change vs veh, COG3 / RFU, DIAPH2 / Fold change vs veh, DIAPH2 / RFU, SKA2 / Fold change vs veh, SKA2 / RFU, AFF3 / Fold change vs veh, AFF3 / RFU, LMF1 / Fold change vs veh, LMF1 / RFU, IPO11 / Fold change vs veh, IPO11 / RFU, DFFB / Fold change vs veh, DFFB / RFU, FOXP1 / Fold change vs veh, FOXP1 / RFU, CARD8 / Fold change vs veh, CARD8 / RFU, STRN3 / Fold change vs veh, STRN3 / RFU, ADK / Fold change vs veh, ADK / RFU, RASSF2 / Fold change vs veh, RASSF2 / RFU, WIPF1 / Fold change vs veh, WIPF1 / RFU, LARP1B / Fold change vs veh, LARP1B / RFU, RASA1 / Fold change vs veh, RASA1 / RFU, RB1 / Fold change vs veh, RB1 / RFU, PPFIA1 / Fold change vs veh, PPFIA1 / RFU, MAT2A / Fold change vs veh, MAT2A / RFU, CCT5 / Fold change vs veh, CCT5 / RFU, WDR92 / Fold change vs veh, WDR92 / RFU, CUX1 / Fold change vs veh, CUX1 / RFU, TTC7A / Fold change vs veh, TTC7A / RFU, TMEM135 / Fold change vs veh, TMEM135 / RFU, DEPTOR / Fold change vs veh, DEPTOR / RFU, CPM / Fold change vs veh, CPM / RFU, DNAJB6 / Fold change vs veh, DNAJB6 / RFU, CACNA2D3 / Fold change vs veh, CACNA2D3 / RFU, DTX4 / Fold change vs veh, DTX4 / RFU, TFCP2 / Fold change vs veh, TFCP2 / RFU, GMCL1 /// GMCL1P1 / Fold change vs veh, GMCL1 /// GMCL1P1 / RFU, AEBP2 / Fold change vs veh, AEBP2 / RFU, SNHG1 /// SNORD22 /// SNORD25 /// SNORD26 /// SNORD27 /// SNORD28 /// SNORD29 /// SNORD31 / Fold change vs veh, SNHG1 /// SNORD22 /// SNORD25 /// SNORD26 /// SNORD27 /// SNORD28 /// SNORD29 /// SNORD31 / Fold change (Aza/veh), C12orf56 (ProbeSet 11735607_a_at) / Fold change (ACY-1035/veh), C12orf56 (ProbeSet 11735607_a_at) / Fold change (Aza/veh), FGFR1OP (ProbeSet 11751329_s_at) / Fold change (ACY-1035/veh), FGFR1OP (ProbeSet 11751329_s_at) / Fold change (Aza/veh), VPS36 (ProbeSet 11739960_a_at) / Fold change (ACY-1035/veh), VPS36 (ProbeSet 11739960_a_at) / RFU SYPL1 (11715823_x_at) / Fold change /veh SYPL1 (11715823_x_at) / RFU IGFBP7 (11715501_s_at) / Fold change /veh IGFBP7 (11715501_s_at) / RFU REEP3 (11722064_at) / Fold change /veh REEP3 (11722064_at) / RFU IGLL1 (11728026_x_at) / Fold change /veh IGLL1 (11728026_x_at): dose or concentration left out as unconfirmed
# Settings: MV-4-11 cells, 48 hours
smiles,measurement,value
Nc1ncn([C@@H]2O[C@H](CO)[C@@H](O)[C@H]2O)c(=O)n1 [azacitidine],Fold change /veh TNFAIP8L3 (11732012_x_at),1.33
